{
  "source": "ChEMBL document CHEMBL1137303",
  "about": "“Progressive docking: a hybrid QSAR/docking approach for accelerating in silico high throughput screening” (J Med Chem, 2006)",
  "key": {"[1]": {"biological_target": "T1, Sex hormone-binding globulin (Homo sapiens) (UniProt P04278)", "T1 sequence (whole entry)": "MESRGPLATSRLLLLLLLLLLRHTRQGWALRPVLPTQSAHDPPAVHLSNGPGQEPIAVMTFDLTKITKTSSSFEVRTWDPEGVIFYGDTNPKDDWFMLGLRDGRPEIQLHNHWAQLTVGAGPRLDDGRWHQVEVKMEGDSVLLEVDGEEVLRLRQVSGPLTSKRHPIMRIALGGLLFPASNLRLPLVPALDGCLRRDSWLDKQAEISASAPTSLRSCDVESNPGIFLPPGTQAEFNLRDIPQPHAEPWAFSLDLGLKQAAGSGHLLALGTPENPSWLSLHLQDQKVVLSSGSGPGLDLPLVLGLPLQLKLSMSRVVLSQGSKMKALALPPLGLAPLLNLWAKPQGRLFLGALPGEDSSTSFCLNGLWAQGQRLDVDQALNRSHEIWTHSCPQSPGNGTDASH", "experiment": "Displacement of [3H]DHT from human SHBG relative to testosterone"}, "[2]": {"biological_target": "T2, Sex hormone-binding globulin (Homo sapiens, UniProt P04278)", "T2 sequence (P04278 whole entry)": "T1 sequence (whole entry)", "experiment": "Displacement of [3H]DHT from human SHBG"}},
  "data": [
    {"smiles": "C[C@]12CC[C@@H]3c4ccc(O)cc4CC[C@H]3[C@@H]1CC[C@@H]2O", "values": [
      {"measurement": "relative binding affinity (RBA)", "setting": "[1]", "value": 3.5}
    ]},
    {"smiles": "CCCC1c2ccc(O)cc2CC1c1ccc(O)cc1", "note": "(stereo not given)", "values": [
      {"measurement": "relative binding affinity (RBA)", "setting": "[1]", "value": 768},
      {"measurement": "IC50", "setting": "[2]", "value": 11.1, "unit": "µM"}
    ]},
    {"smiles": "Cc1cc(Cc2cc(C)c(O)c(CO)c2)cc(CO)c1O", "values": [
      {"measurement": "relative binding affinity (RBA)", "setting": "[1]", "value": 3330},
      {"measurement": "IC50", "setting": "[2]", "value": 48.2, "unit": "µM"}
    ]},
    {"smiles": "C[C@]12CC[C@H]3[C@@H](CCC4=CC(=O)CC[C@@]43C)[C@@H]1CC[C@@H]2O", "note": "[TESTOSTERONE]", "values": [
      {"measurement": "IC50", "setting": "[2]", "value": 0.014, "unit": "µM"}
    ]},
    {"smiles": "CC12CCNC(=O)C=C1CCC1C2CCC2(C)C(O)CCC12", "note": "(stereo not given)", "values": [
      {"measurement": "relative binding affinity (RBA)", "setting": "[1]", "value": 66},
      {"measurement": "IC50", "setting": "[2]", "value": 0.95, "unit": "µM"}
    ]},
    {"smiles": "CCC(c1ccc(O)c(O)c1)C(CC)c1ccc(O)c(F)c1", "note": "(stereo not given)", "values": [
      {"measurement": "relative binding affinity (RBA)", "setting": "[1]", "value": 714},
      {"measurement": "IC50", "setting": "[2]", "value": 10.3, "unit": "µM"}
    ]}
  ]
}
